The target of test [1] is Human immunodeficiency virus type 1 integrase (Human immunodeficiency virus 1, UniProt Q7ZJM1). Nature of the test: Inhibition of HIV1 integrase.
The nature of test [2]: Selectivity index, IC50 for human recombinant APE1 over exonuclase 3.
Test [3] is described as follows: Inhibition of endonuclease 4.
Test [4] is described as follows: Inhibition of exonuclase 3.
Test [5] concerns the target DNA repair nuclease/redox regulator APEX1 (Homo sapiens, UniProt P27695). Nature of the test: Inhibition of purified human recombinant APE1 expressed in Escherichia coli M15 cells.

Chain of DNA repair nuclease/redox regulator APEX1 (P27695 whole entry): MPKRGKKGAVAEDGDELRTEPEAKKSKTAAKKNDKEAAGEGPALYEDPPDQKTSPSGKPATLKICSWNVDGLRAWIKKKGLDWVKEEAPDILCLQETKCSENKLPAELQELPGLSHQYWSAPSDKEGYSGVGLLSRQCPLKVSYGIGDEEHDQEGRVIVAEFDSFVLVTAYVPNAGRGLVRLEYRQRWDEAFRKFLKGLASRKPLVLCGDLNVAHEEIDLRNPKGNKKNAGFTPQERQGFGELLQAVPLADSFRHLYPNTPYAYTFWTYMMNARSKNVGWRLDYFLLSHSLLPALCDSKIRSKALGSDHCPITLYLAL
Chain of Human immunodeficiency virus type 1 integrase (Q7ZJM1 whole entry): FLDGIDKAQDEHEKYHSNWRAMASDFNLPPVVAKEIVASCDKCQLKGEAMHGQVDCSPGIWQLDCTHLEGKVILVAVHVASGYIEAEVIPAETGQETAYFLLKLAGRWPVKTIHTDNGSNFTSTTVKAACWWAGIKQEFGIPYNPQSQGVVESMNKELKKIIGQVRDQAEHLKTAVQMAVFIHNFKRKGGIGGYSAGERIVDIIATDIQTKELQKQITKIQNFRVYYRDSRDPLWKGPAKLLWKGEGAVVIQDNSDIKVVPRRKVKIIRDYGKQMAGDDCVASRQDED

Regarding `O=C(O)CCc1ccc(-c2ccc(Cl)cc2)n1CC(=O)O`, the 50% inhibitory concentration (IC50) was over 100 µM in test [1], over 100 µM in test [3], over 100 µM in test [4] and 4 µM in test [5]. The Ratio IC50 in test [2] is over 25.
Consider `O=S(=O)(O)CCSc1nnc(SCCS(=O)(=O)O)s1`, for which, in test [5], the half-inhibitory concentration (IC50) was over 100 µM.
On to `COc1ccc(/C=C/C(=O)O)cc1S(=O)(=O)NCc1cccnc1`, for which the half-maximal inhibitory concentration (IC50) in test [5] was over 100 µM.
The same measure, in the same setting: to `COC(=O)C1C(=O)c2c([nH]c(C(=O)OC3CCCCC3)c2C)CC1C` (configuration not stated) belongs over 100 µM; to `Cc1cc(CSCc2cc(C(=O)O)c(C)o2)oc1C(=O)O`, 6 µM.
`O=C(O)Cn1c(=O)n(CC(=O)O)c2ccccc21`: in test [5], the half-inhibitory concentration (IC50) came out at 16 µM.
With `O=C(O)c1cccc(NS(=O)(=O)c2cccc3nsnc23)c1`, in test [5], the IC50 was over 100 µM.
The same measure, in the same setting: to `CCOC(=O)C(CCc1nn[nH]n1)(CCc1nn[nH]n1)C(=O)OCC` belongs over 100 µM.
As to `O=C(O)c1cccc(Nc2nc3ccccc3nc2NS(=O)(=O)c2cccc([N+](=O)[O-])c2)c1`, the concentration for half-maximal inhibition (IC50) in test [5] was over 100 µM.
Still for that read-out and setting: to `O=C(Cn1cc(C(=O)c2ccco2)c2ccccc21)NCc1cccnc1` belongs over 100 µM; to `Cc1nc(NC(=O)c2ccco2)sc1C(=O)O`, over 100 µM.
Same read-out and setting: to `COc1ccc(/C=C/C(=O)O)cc1S(=O)(=O)NC1CCS(=O)(=O)C1` (configuration not stated) belongs over 100 µM.
On to `O=S(=O)(c1ccccc1)N1CCCC(c2nc(-c3ccc(F)cc3)no2)C1` (configuration not stated), for which the IC50 in test [5] is over 100 µM.
As for `Cc1ccc(-c2nnc3c4ccccc4c(C)nn23)cc1S(=O)(=O)N1CCOCC1`, the IC50 in test [5] was over 100 µM.
Still for that read-out and setting: to `O=[N+]([O-])c1ccccc1-c1nnc(CSc2nc(-c3ccccc3O)n[nH]2)o1` belongs over 100 µM; to `Cc1cc(NC(=O)CCC(=O)O)ccc1NC(=O)c1cccs1`, 100 µM; to `CCn1c(SCC(=O)c2cccs2)nnc1-c1ccc(NS(C)(=O)=O)cc1`, over 100 µM.
Same read-out and setting: to `CC(Oc1cc(OC(C)C(=O)O)c2c(c1)oc(=O)c1ccccc12)C(=O)O` (configuration not stated) belongs 8 µM; to `Cc1oc(C(=O)O)cc1CSCC(C)C(=O)O` (configuration not stated), 22 µM; to `COc1ccc(N(CC(=O)NC2CCCC2)C(=O)C2CSC(=O)C2)cc1` (configuration not stated), over 100 µM.
Regarding `CCN(c1ccc(C(O)(C(=O)OC)C(F)(F)F)cc1)S(=O)(=O)c1ccc(C)cc1` (configuration not stated), the IC50 in test [5] is over 100 µM.
Still for that read-out and setting: to `C(=C\CSc1nnnn1-c1ccccc1)/CSc1nnnn1-c1ccccc1` belongs over 100 µM.
The same measure, in the same setting: to `O=C(O)c1cccc(NC(=O)C2CCCCC2C(=O)O)c1` (configuration not stated) belongs 55 µM; to `O=C(O)CCS(=O)(=O)c1cccc2c(S(=O)(=O)CCC(=O)O)cccc12`, 35 µM.
For `O=S(=O)(c1ccc(OC(F)(F)F)cc1)N1CCCC(c2nc(O)c3nnn(Cc4ccccc4Cl)c3n2)C1` (configuration not stated), in test [5], the IC50 is over 100 µM.
On to `COC(=O)C1C(=O)c2c([nH]c(C(=O)OCC3CCCO3)c2C)CC1C` (configuration not stated), for which the half-inhibitory concentration (IC50) in test [5] is over 100 µM.
As to `Cc1ccc(Cn2nnc3c(O)nc(C4CCCN(S(=O)(=O)c5ccccc5)C4)nc32)cc1` (configuration not stated), in test [5], the 50% inhibitory concentration (IC50) was over 100 µM.
The same measure, in the same setting: to `Cc1nc(N(CCC(=O)O)CCC(=O)O)sc1C(C)(C)C` belongs 60 µM.
On to `CCS(=O)(=O)Nc1cc2c(cc1C)C(S(=O)(=O)CC)C1=C2CCC1` (configuration not stated), for which the IC50 in test [5] was over 100 µM.
Consider `CCCCOC(=O)c1ccc(NC(=O)CSc2nnnn2CC)cc1`, for which, in test [5], the concentration for half-maximal inhibition (IC50) is over 100 µM.
In the case of `O=C(O)CNC(=O)c1cc(=O)[nH]c(=O)[nH]1`, the half-maximal inhibitory concentration (IC50) in test [5] is over 100 µM.
On to `Cc1cc(S(=O)(=O)N2CCOCC2)ccc1OCC(=O)NCc1ccncc1`, for which the IC50 in test [5] is over 100 µM.
Take `COc1cc(S(=O)(=O)N(Cc2ccc(Br)cc2)Cc2ccco2)ccc1-n1cnnn1`: in test [5], the IC50 is over 100 µM.
Consider `O=C(Nc1ccccc1O)c1cc(S(=O)(=O)N2CCCCC2)ccc1Cl`, for which the IC50 in test [5] is over 100 µM.
On the same count and under the same terms, to `O=S(=O)(c1ccc(F)cc1)N1CCCC(c2nc(O)c3nnn(Cc4ccc(F)cc4)c3n2)C1` (configuration not stated) belongs over 100 µM; to `Cc1cc(S(=O)(=O)NC2CCCC2)ccc1-n1cnnn1`, over 100 µM.
The same measure, in the same setting: to `O=C(O)c1ccccc1C(=O)NCc1ccc(CNC(=O)c2ccccc2C(=O)O)cc1` belongs 30 µM; to `CCNC(=O)c1cc(S(=O)(=O)NCCC(=O)O)c(C)s1`, over 100 µM; to `C=CCN1C(=O)C(Cc2ccccc2)S/C1=N/c1ccc(C(=O)O)cc1` (configuration not stated), 100 µM.
With `CCN1/C(=C2/SC(=S)N(NC(C)=O)C2=O)Sc2ccc(S(=O)(=O)C(F)(F)F)cc21`, the IC50 in test [5] is over 100 µM.
Still for that read-out and setting: to `CCNC(=O)c1cc(S(=O)(=O)NCc2ccc(C(=O)O)cc2)c(C)s1` belongs over 100 µM; to `O=C(O)c1oc2ccccc2c1CSc1ccccn1`, 27 µM; to `CCS(=O)(=O)N1CCCC(c2nc(O)c3nnn(Cc4ccccc4)c3n2)C1` (configuration not stated), over 100 µM.
The same measure, in the same setting: to `O=C(O)CN1C(=O)/C(=C2\SC(=S)N(c3ccc(Br)cc3)C2=O)c2ccccc21` belongs 6 µM.
Still for that read-out and setting: to `Cc1ccc(S(=O)(=O)CCc2nnc(NC(=O)CC3CC4CCC3C4)s2)cc1` (configuration not stated) belongs over 100 µM; to `O=C(O)CCC(=O)NC(Cc1ccccc1)C(=O)O` (configuration not stated), 40 µM; to `O=C(O)c1cccc(S(=O)(=O)N2CCS(=O)(=O)CC2)c1`, 80 µM.
As for `Cc1nc2ccc(C(=O)O)cc2c(O)c1CCC(=O)O`, the 50% inhibitory concentration (IC50) in test [5] turned out to be 20 µM.
For the molecule `O=P(O)(O)c1ccccc1OCCOc1ccccc1P(=O)(O)O`, the IC50 in test [5] is over 100 µM.
Still for that read-out and setting: to `Cc1oc(CSCCSCc2cc(C(=O)O)c(C)o2)cc1C(=O)O` belongs 5 µM.
Same read-out and setting: to `O=C(O)CNS(=O)(=O)c1ccc2c(c1)C(=O)c1cc(S(=O)(=O)NCC(=O)O)ccc1-2` belongs 50 µM; to `O=C(O)CCC1(CCC(=O)O)c2ccccc2-c2ccccc21`, 50 µM.
Take `CN(NC(=O)COc1ccccc1)C1=NS(=O)(=O)c2ccccc21`: in test [5], the IC50 is over 100 µM.
Turning to `CCc1nnc(NS(=O)(=O)c2ccc(NC(=O)CCC(=O)O)cc2)s1`, in test [5], the IC50 was determined as 80 µM.
The same measure, in the same setting: to `CCOC(=O)C(=Cc1c[nH]c2ccc(S(=O)(=O)N(C)C)cc12)C(=O)OCC` belongs over 100 µM; to `COC(=O)C1C(=O)C2=C(CC1C)NC(C)=C(C(=O)OC1CCCC1)C2c1ccccc1C` (configuration not stated), over 100 µM; to `O=C(O)CCCNc1n[nH]c(=O)[nH]c1=O`, over 100 µM.
For `O=S(=O)(O)c1ccccc1Nc1ccnc(Nc2ccccc2S(=O)(=O)O)n1`, in test [5], the IC50 was over 100 µM.
Same read-out and setting: to `O=C(O)c1cccc(S(=O)(=O)N2CCCC(c3nc(O)c4nnn(Cc5ccccc5Cl)c4n3)C2)c1` (configuration not stated) belongs 87 µM; to `Nc1ncnc2[nH]c(SCCC(=O)O)nc12`, 20 µM; to `O=C(O)CC1S/C(=N/N=C/c2ccco2)NC1=O` (configuration not stated), over 100 µM.
As for `O=C(CCc1nc(-c2ccc(Cl)cc2)no1)Nc1nnn[nH]1`, in test [5], the IC50 is over 100 µM.
Same read-out and setting: to `CN(c1ccc(C(=O)O)cc1)S(=O)(=O)c1cccs1` belongs over 100 µM.
Same read-out and setting: to `O=C(O)CCc1nc2cc(C(=O)O)ccc2[nH]1` belongs 80 µM.
For `COc1ccccc1C(=O)NCC(C)(C)CNC1=NS(=O)(=O)c2ccccc21`, the concentration for half-maximal inhibition (IC50) in test [5] was over 100 µM.
Take `CCc1nnc(NC(=O)c2cc(S(=O)(=O)N(CC)CC)ccc2Cl)s1`: the IC50 in test [5] was over 100 µM.
Turning to `O=C(O)CCSc1nnc(SCCC(=O)O)s1`, in test [5], the half-inhibitory concentration (IC50) came out at 17 µM.
Same read-out and setting: to `O=C(O)c1ccc(S(=O)(=O)c2ccc(Sc3ccc(C(=O)O)c(C(=O)O)c3)cc2)cc1` belongs 6 µM.

The values are drawn from ChEMBL document CHEMBL1139343, “Pharmacophore guided discovery of small-molecule human apurinic/apyrimidinic endonuclease 1 inhibitors” (J Med Chem, 2009).
